# Results taken from PubChem BioAssay (NCI).
# Values joined by “and” are separate entries in the source; they are usually repeats but may differ in a detail not shown here. Equal entries are not always repeated.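 The compound was tested at five concentrations on cells cultured in 96-well plates, with a 48-hour exposure period. GI50 is the concentration that inhibits growth by half. The concentration for full growth arrest is given as TGI.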
# Key:
# Experiment in all cases: NCI-60 cell line screen, 48 h
# [1] = tested on: A549 NSCLC
# [2] = tested on: SK-MEL-2 melanoma
# [3] = tested on: SN12C renal
# [4] = tested on: NCI-H522 lung
# [5] = tested on: HL-60(TB) leukemia
# [6] = tested on: K-562 leukemia
# [7] = tested on: BT-549 breast
# [8] = tested on: HOP-62 NSCLC
# [9] = tested on: SF-539 CNS
# [10] = tested on: UO-31 renal
# [11] = tested on: NCI-H460 lung
# [12] = tested on: HS 578T breast
# [13] = tested on: SF-295 CNS
# [14] = tested on: MOLT-4 leukemia
# [15] = tested on: OVCAR-5 ovarian
# [16] = tested on: EKVX NSCLC
# [17] = tested on: HT29 colon
# [18] = tested on: SR leukemia
# [19] = tested on: SW-620 colon
# [20] = tested on: SF-268 CNS
# [21] = tested on: DU-145 prostate
# [22] = tested on: SNB-19 CNS
# [23] = tested on: U251 CNS
# [24] = tested on: UACC-62 melanoma
# [25] = tested on: MDA-MB-231 breast
# [26] = tested on: NCI-H226 lung
# [27] = tested on: UACC-257 melanoma
# [28] = tested on: OVCAR-3 ovarian
# [29] = tested on: IGROV1 ovarian
# [30] = tested on: TK-10 renal
# [31] = tested on: MALME-3M melanoma
# [32] = tested on: M14 melanoma
# [33] = tested on: SNB-75 CNS
# [34] = tested on: NCI/ADR-RES ovarian
# [35] = tested on: RXF 393 renal
# [36] = tested on: SK-MEL-5 melanoma
# [37] = tested on: OVCAR-4 ovarian
# [38] = tested on: HCC-2998 colon
# [39] = tested on: MCF7 breast
# [40] = tested on: KM12 colon
# [41] = tested on: PC-3 prostate
# [42] = tested on: T-47D breast
# [43] = tested on: A498 renal
# [44] = tested on: SK-MEL-28 melanoma
# [45] = tested on: RPMI-8226 leukemia
# [46] = tested on: LOX IMVI melanoma
# [47] = tested on: 786-0 renal
# [48] = tested on: HCT-15 colon
# [49] = tested on: HCT-116 colon
# [50] = tested on: COLO 205 colon
# [51] = tested on: HOP-92 NSCLC
# [52] = tested on: ACHN renal
# [53] = tested on: SK-OV-3 ovarian
# [54] = tested on: OVCAR-8 ovarian
# [55] = tested on: CCRF-CEM leukemia
# [56] = tested on: MDA-MB-435
# [57] = tested on: CAKI-1 renal
# [58] = tested on: NCI-H23 lung
structure (smiles),measurement,setting,value
Cc1ccc(C(=O)N(CCCN)[C@@H](c2nc3cc(Cl)ccc3c(=O)n2Cc2ccccc2)C(C)C)cc1,GI50,[1],< 0.01 µM
same,TGI,[1],1400 nM and 1710 nM
same,GI50,[2],< 0.01 µM
same,GI50,[3],< 0.01 µM
same,TGI,[3],2280 nM and 1830 nM
same,GI50,[4],< 0.01 µM
same,GI50,[5],< 0.01 µM
same,TGI,[5],0.482 µM
same,GI50,[6],< 0.01 µM
same,TGI,[6],1670 nM and 1230 nM
same,GI50,[7],43 nM and 10.3 nM
same,TGI,[7],2940 nM and 1670 nM
same,GI50,[8],< 10 nM and 10 nM
same,TGI,[8],2070 nM and 2090 nM
same,GI50,[9],< 0.01 µM
same,TGI,[9],1380 nM and 654 nM
same,GI50,[10],1120 nM and 1020 nM
same,TGI,[10],2580 nM and 2270 nM
same,GI50,[11],< 0.01 µM
same,TGI,[11],1090 nM and 1250 nM
same,GI50,[12],< 0.01 µM
same,GI50,[13],< 0.01 µM
same,GI50,[14],< 0.01 µM
same,TGI,[14],3.87 µM and 1.45 µM
same,GI50,[15],< 0.01 µM
same,TGI,[15],2020 nM and 1740 nM
same,GI50,[16],< 0.01 µM
same,TGI,[16],2220 nM and 1640 nM
same,GI50,[17],< 0.01 µM
same,TGI,[17],1030 nM and 1490 nM
same,GI50,[18],< 0.01 µM
same,TGI,[18],1630 nM and 1440 nM
same,GI50,[19],< 0.01 µM
same,TGI,[19],1280 nM and 1610 nM
same,TGI,[20],1970 nM and 2350 nM
same,GI50,[21],< 0.01 µM
same,GI50,[22],< 0.01 µM
same,TGI,[22],2120 nM and 1900 nM
same,GI50,[23],< 0.01 µM
same,TGI,[23],1190 nM and 1530 nM
same,GI50,[24],< 0.01 µM
same,TGI,[24],1910 nM and 1570 nM
same,GI50,[25],< 0.01 µM
same,TGI,[25],233 nM and 172 nM
same,GI50,[26],0.325 µM
same,TGI,[26],2250 nM and 2500 nM
same,TGI,[27],1860 nM and 2790 nM
same,GI50,[28],< 0.01 µM
same,GI50,[29],< 0.0336 µM
same,TGI,[29],2.09 µM
same,TGI,[30],1710 nM and 2810 nM
same,GI50,[31],0.0303 µM
same,TGI,[31],2.39 µM
same,GI50,[32],< 0.01 µM
same,TGI,[32],< 0.01 µM
same,GI50,[33],< 0.01 µM
same,TGI,[33],1560 nM and 1370 nM
same,GI50,[34],48.1 nM and 40.6 nM
same,TGI,[34],307 nM and 481 nM
same,GI50,[35],< 0.01 µM
same,GI50,[36],< 0.01 µM
same,TGI,[36],1350 nM and 1460 nM
same,GI50,[37],1280 nM and 1130 nM
same,TGI,[37],3.54 µM and 2.46 µM
same,GI50,[38],< 0.01 µM
same,TGI,[38],1230 nM and 912 nM
same,GI50,[39],< 0.01 µM
same,TGI,[39],1590 nM and 1330 nM
same,GI50,[40],< 0.01 µM
same,TGI,[40],1290 nM and 1440 nM
same,GI50,[41],< 0.01 µM
same,TGI,[41],2320 nM and 1760 nM
same,GI50,[42],< 0.01 µM
same,TGI,[42],1980 nM and 1670 nM
same,GI50,[43],< 0.01 µM
same,TGI,[43],1770 nM and 816 nM
same,GI50,[44],1110 nM and 1150 nM
same,TGI,[44],2500 nM and 2420 nM
same,GI50,[45],< 0.01 µM
same,TGI,[45],1.72 µM
same,GI50,[46],< 0.01 µM
same,TGI,[46],1810 nM and 1520 nM
same,GI50,[47],< 0.01 µM
same,TGI,[47],2080 nM and 1980 nM
same,GI50,[48],15.9 nM and < 10 nM
same,TGI,[48],1920 nM and 1440 nM
same,GI50,[49],< 0.01 µM
same,TGI,[49],1410 nM and 1260 nM
same,GI50,[50],< 0.01 µM
same,TGI,[50],1.1 µM
same,GI50,[51],1 µM
same,TGI,[51],2000 nM and 2330 nM
same,GI50,[52],0.798 µM
same,TGI,[52],2380 nM and 2150 nM
same,GI50,[53],< 0.01 µM
same,TGI,[53],1650 nM and 2190 nM
same,GI50,[54],< 0.01 µM
same,TGI,[54],1520 nM and 2110 nM
same,GI50,[55],< 10 nM
same,TGI,[55],3.3 µM and 1.46 µM
same,GI50,[56],< 0.01 µM
same,TGI,[56],< 0.01 µM
same,TGI,[57],2330 nM and 1940 nM
same,GI50,[58],< 0.01 µM
same,TGI,[58],1590 nM and 1670 nM
CCCN(CCC)CCCNCc1cc(I)cc(C)c1O,GI50,[1],19.4 µM
same,TGI,[1],42400 nM
same,GI50,[2],20.1 µM
same,TGI,[2],36.3 µM
same,GI50,[3],28.7 µM
same,TGI,[3],> 100000 nM
same,GI50,[4],16.9 µM
same,TGI,[4],31.1 µM
same,GI50,[5],13.8 µM
same,TGI,[5],29.8 µM
same,GI50,[6],6.12 µM
same,TGI,[6],19400 nM
same,GI50,[7],12300 nM
same,TGI,[7],24800 nM
same,GI50,[8],13400 nM
same,TGI,[8],26200 nM
same,GI50,[9],14.7 µM
same,TGI,[9],27900 nM
same,GI50,[10],17200 nM
same,TGI,[10],53100 nM
same,GI50,[11],13.3 µM
same,TGI,[11],26000 nM
same,GI50,[12],11.1 µM
same,TGI,[12],24.6 µM
same,GI50,[13],13.7 µM
same,TGI,[13],27 µM
same,GI50,[14],10.7 µM
same,TGI,[14],23.4 µM
same,GI50,[15],18.5 µM
same,TGI,[15],43700 nM
same,GI50,[16],15.8 µM
same,TGI,[16],33700 nM
same,GI50,[17],7.21 µM
same,TGI,[17],20000 nM
same,GI50,[18],7.18 µM
same,TGI,[18],21200 nM
same,GI50,[19],14.3 µM
same,TGI,[19],27400 nM
same,GI50,[20],15.9 µM
same,TGI,[20],29400 nM
same,GI50,[21],19.4 µM
same,TGI,[21],42 µM
same,GI50,[22],18.2 µM
same,TGI,[22],40800 nM
same,GI50,[23],15.9 µM
same,TGI,[23],29400 nM
same,GI50,[24],5.54 µM
same,TGI,[24],18600 nM
same,GI50,[25],14.5 µM
same,TGI,[25],28500 nM
same,GI50,[26],22.3 µM
same,TGI,[26],66100 nM
same,GI50,[27],11.5 µM
same,TGI,[27],27700 nM
same,GI50,[28],14.8 µM
same,TGI,[28],27.9 µM
same,GI50,[29],15.6 µM
same,TGI,[29],29.6 µM
same,GI50,[30],16.1 µM
same,TGI,[30],30600 nM
same,GI50,[31],16.5 µM
same,TGI,[31],31.5 µM
same,GI50,[32],12.8 µM
same,TGI,[32],25.4 µM
same,GI50,[33],14.6 µM
same,TGI,[33],29000 nM
same,GI50,[34],15400 nM
same,TGI,[34],29800 nM
same,GI50,[35],9.91 µM
same,TGI,[35],23.2 µM
same,GI50,[36],6.83 µM
same,TGI,[36],19300 nM
same,GI50,[37],17900 nM
same,TGI,[37],37.8 µM
same,GI50,[38],20.9 µM
same,TGI,[38],36100 nM
same,GI50,[39],17.6 µM
same,TGI,[39],31800 nM
same,GI50,[40],15 µM
same,TGI,[40],30000 nM
same,GI50,[41],15.1 µM
same,TGI,[41],28400 nM
same,GI50,[42],15.9 µM
same,TGI,[42],42100 nM
same,GI50,[43],11.6 µM
same,TGI,[43],23800 nM
same,GI50,[44],15400 nM
same,TGI,[44],28900 nM
same,GI50,[45],10.8 µM
same,TGI,[45],27.2 µM
same,GI50,[46],14.6 µM
same,TGI,[46],27700 nM
same,GI50,[47],13.6 µM
same,TGI,[47],26400 nM
same,GI50,[48],15300 nM
same,TGI,[48],29700 nM
same,GI50,[49],7.9 µM
same,TGI,[49],20500 nM
same,GI50,[50],13.8 µM
same,TGI,[50],29 µM
same,GI50,[51],5.04 µM
same,TGI,[51],18600 nM
same,GI50,[52],17.1 µM
same,TGI,[52],34800 nM
same,GI50,[53],16.3 µM
same,TGI,[53],31000 nM
same,GI50,[54],17.4 µM
same,TGI,[54],35700 nM
same,GI50,[55],1280 nM
same,TGI,[55],6.06 µM
same,GI50,[56],12 µM
same,TGI,[56],24.8 µM
same,GI50,[57],14.6 µM
same,TGI,[57],30600 nM
same,GI50,[58],15.2 µM
same,TGI,[58],33500 nM
